Experimental data from US20230105108A1, “COMPOUNDS FOR THE TREATMENT OF BACTERIAL INFECTIONS AND POTENTIATION OF ANTIBIOTICS” (GEORGIA STATE UNIVERSITY RESEARCH FOUNDATION, INC., priority 2019, published 2023).
pIC50: −log10 of the molar value. Structures can show the parent of a compound that is named as a salt. Where two headings read alike, the source gives them in different places.

Key:
[1] = Cytotoxicity in H9c2 cells (CCK-8); format: cell-based; conditions: rat, H9c2 cells; H9c2 cell line
How it was run: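 H9c2 cells were grown in DMEM with 10% FBS, seeded the day before, and exposed to a range of di-amidine concentrations for 24 h at 37 °C, 5% CO2. Viability was read by CCK-8 after 3 h at 37 °C as absorbance at 450 nm.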

E. coli (ATCC 25922) = assay: MIC determination, sensitization fold and FIC index on E. coli; format: cell-based; conditions: for MIC: Escherichia coli
How it was run: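 E. coli in cation-adjusted Mueller Hinton II, 5×10^5 CFU/ml, 24 h at 37 °C shaking; rifampicin two-fold serial dilutions with or without fixed sensitizer (10 μM).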

B. subtilis = assay: MIC determination and sensitization fold on B. subtilis; format: cell-based
MRSA (ATCC 33592) = assay: MIC determination and sensitization fold on MRSA; format: cell-based, methicillin-resistant Staphylococcus aureus
M. smegmatis = assay: MIC on mycobacteria; format: cell-based, Mycobacterium smegmatis; conditions: Mycolicibacterium smegmatis, read-out: MIC on mycobacteria
[2] = Cytotoxicity on mammalian cells (CCK-8), HEK293; format: cell-based; conditions: human, HEK293 cells; HEK293 cell line; 24 h
How it was run: (§1)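 Cells seeded a day ahead to ~80% confluency, exposed to varied compound concentrations for 24 h at 37° C, 5% CO2. CCK-8 added for a further 2 h and OD 450 nm read; viability expressed as percent of untreated control.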

HEK293 cells = assay: Cytotoxicity on mammalian cells (CCK-8), HEK293; format: cell-based; conditions: Homo sapiens, HEK293
How it was run: as §1

[3] = Cytotoxicity on mammalian cells (CCK-8), NIH3T3; format: cell-based; conditions: mouse, NIH3T3 cells, 3T3 cell line
How it was run: as §1

MRSA and E. coli = assay: Composition of mixed MRSA and E. coli under antibiotic pressure; format: cell-based; conditions: 1.5 μg/ml MD-108 and 8 ng/ml trovafloxacin
Procedure: (§2) FIG. 11 contains graphs showing that MD-108 can change the composition between MRSA and E. coli (Panel A) or MRSA and B. subtilis (Panel B) when the bacteria strains are under the same antibiotic pressure.
(§3) As a proof of concept, the relative ratio of E. coli and MRSA or B. subtilis and MRSA was measured with and without MD-108 (FIGS. 11A and B). […] When supplied with 1.5 μg/ml MD-108 and 8 ng/ml trovafloxacin, the MRSA inhibition was achieved, leaving E. coli as the dominant species (89% of the bacteria population).

MRSA and B. subtilis = assay: Composition of mixed MRSA and B. subtilis under antibiotic pressure; format: cell-based; conditions: 8 ng/ml trovafloxacin and 1.5 μg/ml MD-108
Procedure: as §2, §3

A. baumannii = assay: MIC of rifampicin on A. baumannii with bacterial sensitizer Compound D; format: cell-based; conditions: Acinetobacter baumannii; antibiotic alone; read-out: minimum inhibitory concentration (MIC) on A. baumannii
Procedure: Bacteria were cultured with the antibiotic at various concentrations in the presence or absence of bacterial sensitizer, Compound D, for 24 hours at 37° C.

[4] = test system: A. baumannii (ATCC 17978); assay: MIC, sensitization fold and FIC index on A. baumannii; format: cell-based; conditions: for Sensitization fold with 5 μg/ml MD-124: A. baumannii towards the antibiotic
K. pneumoniae (43816) = assay: MIC, sensitization fold and FIC index on K. pneumoniae; format: cell-based
[5] = test system: NDM-1 expressing E. coli strain; assay: microbe, parasite or virus in culture; format: cell-based; conditions: for Sensitization fold with 5 μg/ml MD-124: NDM-1 expressing E. coli towards the antibiotic
[6] = test system: mcr-1 over-expressing E. coli strains; assay: microbe, parasite or virus in culture; format: cell-based; conditions: for MIC: Escherichia coli; for Sensitization fold with 5 μg/ml MD-124: mcr-1 over-expression E. coli strain towards the antibiotic
E. coli = assay: Lysozyme assay (outer membrane disruption); format: cell-based; conditions: 50 μg/ml lysozyme, 25 μg/ml sensitizer, 10 min
Procedure: Lysozyme assay to evaluate the disruption of Gram-negative bacteria out membrane by bacterial sensitizers. Lysozyme assay was performed based on literature reported method. E. coli was cultured in Mueller Hinton II cation-adjusted broth for overnight, centrifuged at 3000 g for 10 min, washed with HEPES buffer (pH=7.2) and then centrifuged again to obtain bacteria pallet. The pallet was then gently resuspended in HEPES buffer with 5 mM NaCN to obtain an E. coli suspension with OD600 between 0.8˜1.0. On a 96-well plate, each well was supplied with 100 μl lysozyme solution (100 μg/ml) containing 50 or 100 μg/ml bacterial sensitizers in HEPES buffer. To each well was added 100 μl E. coli suspension. The final concentration of lysozyme was 50 μg/ml. The plate was incubated at room temperature for 10 min and the OD600 was recorded. E. coli was also incubated with bacterial sensitizers in the absence of lysozyme to test if bacterial sensitizers would directly induce bacterial lysis. E. coli that was incubated with lysozyme alone or E. coli without any treatment were also used as negative control.

E. coli expressing mcr-1 = assay: Ex vivo skin burn infection model, mcr-1 positive E. coli; conditions: human skin burn, hypromellose gel; 3‰ (w/w)
Procedure: To achieve topical application, compounds were formulated as hypromellose gel. […] After that, skin was loaded with hypromellose gel with different antibiotics and cultured at 37° C. for 24 hours. After 24 hours incubation, the skin sample was homogenized and the supernatants were serially diluted and plated on agar plates, from which bacterial counts on the skin was calculated. […] 1‰ polymyxin B hypromellose gel was used as positive control.

[7] = E. coli towards the antibiotic, MD-124 5 μg/ml
[8] = mcr-1 over-expression E. coli strain (MIC of polymyxin B 30 μg/ml)

## Cc1cc(CCc2ccc(C(=N)N)cc2)cc(CCc2ccc(C(=N)N)cc2)c1 [MD-108, 4,4′-((5-methyl-1,3-phenylene)bis(ethane-2,1-diyl))dibenzimidamide dihydrochloride]
[1]
  CC50 at 24 h: 12.5 µM
E. coli (ATCC 25922); 10 μM compound, rifampicin as the antibiotic (Table 6)
  Sensitization fold: 16 fold
E. coli (ATCC 25922); E. coli, rifampicin, compound at 10 μM
  Sensitization fold: 16-fold at 10 μM.
E. coli (ATCC 25922); E. coli, rifampicin, compound at 25 μM
  Sensitization fold: 32-fold at 25 μM;
E. coli (ATCC 25922); ATCC25922, 24 h
  MIC: 100 µM
B. subtilis; B. subtilis, erythromycin, compound at 6 μM
  Sensitization fold: 32-fold at 6 μM.
B. subtilis; Bacillus subtilis, 24 h, B. subtilis, compound alone, read-out: MIC
  MIC: 25 µM
MRSA (ATCC 33592); MRSA, rifampicin, compound at 3 μM
  Sensitization fold: 16-fold at 3 μM
M. smegmatis
  MIC: 6 to 12 µM
[2]
  CC50 at 24 h: 50 µM
HEK293 cells
  pIC50: 4.30
[3]
  CC50 at 24 h: 50 µM
MRSA and E. coli
  E. coli share of the bacteria population: 89%
MRSA and B. subtilis
  B. subtilis share of the composition: 99.5%

## CO[C@H]1/C=C/O[C@@]2(C)Oc3c(C)c(O)c4c(O)c(c(/C=N/N5CCN(C)CC5)c(O)c4c3C2=O)NC(=O)/C(C)=C\C=C\[C@H](C)[C@H](O)[C@@H](C)[C@@H](O)[C@@H](C)[C@H](OC(C)=O)[C@@H]1C [Rifampicin]
A. baumannii
  MIC: 5 µg/mL
E. coli (ATCC 25922); [7]
  Sensitization fold: 516 fold
E. coli (ATCC 25922); E. coli, checkerboard assay
  fractional inhibitory concentration (FIC) index between MD-124 and antibiotic: 0.09
E. coli (ATCC 25922); ATCC25922, E. coli, with ~10 μg/ml MD-124, read-out: MIC of rifampicin (checkerboard assay)
  MIC: 0.0006 µg/mL
B. subtilis; B. subtilis
  FIC index between DB2560 and antibiotic: 0.11
  MIC of antibiotic in the presence of 5.5 μg/ml of DB2560: 0.037 µg/mL
B. subtilis; B. subtilis towards the antibiotic
  sensitization fold with 5.5 μg/ml DB2560: 256 fold
MRSA (ATCC 33592); MRSA towards the antibiotic
  sensitization fold with 2.7 μg/ml DB2560: 32 fold
[4]
  Sensitization fold with 5 μg/ml MD-124: 128 fold
[4]; A. baumannii, checkerboard assay
  FIC index between MD-124 and antibiotic: 0.14
[4]; Acinetobacter baumannii, ATCC17978, A. baumannii, checkerboard assay, read-out: MIC of rifampicin with 7 pg/ml of the sensitizer (MD-124)
  MIC: 0.01 µg/mL
K. pneumoniae (43816); K. pneumoniae
  FIC index between MD-124 and antibiotic: 0.15
  MIC of AB with 5 μg/ml MD-124: 0.016 µg/mL
K. pneumoniae (43816); K. pneumoniae towards the antibiotic
  Sensitization fold with 5 μg/ml MD-124: 252 fold
[5]; Escherichia coli, read-out: MIC of rifampicin with 10 μg/ml MD-124, NDM-1 expressing E. coli
  MIC: 0.012 µg/mL
[5]; NDM-1 expressing E. coli
  FIC index between MD-124 and antibiotic: 0.09
[5]
  Sensitization fold with 5 μg/ml MD-124: 516 fold
[6]; mcr-1 over-expression E. coli strain (MIC of polymyxin B 30 μg/ml), read-out: MIC of AB only
  MIC: 5 µg/mL
[6]; read-out: MIC of AB with 5 μg/ml MD-124, mcr-1 over-expression E. coli strain (MIC of polymyxin B 30 μg/ml)
  MIC: ≤ 0.2 µg/mL
[6]; strain mcr-1 A, read-out: MIC of Rif only
  MIC: 5 µg/mL
[6]; strain mcr-1 B, read-out: MIC of Rif only
  MIC: 5 µg/mL
[6]; mcr-1 expressing E. coli
  FIC index between MD-124 and antibiotic: 0.37
[6]; [8]
  MIC of AB with 5 μg/ml MD-124: 0.16 µg/mL
[6]
  Sensitization fold with 5 μg/ml MD-124: 32 fold

## Polymyxin B
E. coli (ATCC 25922); E. coli (wild type), antibiotic alone
  MIC of AB only: 1.2 µg/mL
E. coli (ATCC 25922); [7]
  Sensitization fold: 32 fold
E. coli (ATCC 25922); E. coli, MD-124 concentration 5 μg/ml
  MIC of AB with MD-124: 0.04 µg/mL
[4]; A. baumannii
  MIC of AB with 5 μg/ml MD-124: 0.04 µg/mL
[4]
  Sensitization fold with 5 μg/ml MD-124: 4 fold
[4]; A. baumannii, antibiotic alone
  MFC of AB only: 1.6 µg/mL
[5]; NDM-1 expressing E. coli
  MIC of AB with 5 μg/ml MD-124: 0.32 µg/mL
[5]
  Sensitization fold with 5 μg/ml MD-124: 8 fold
[5]; NDM-1 expressing E. coli, antibiotic alone
  MFC of AB only: 2.5 µg/mL
[6]; [8]
  MIC of AB with 5 μg/ml MD-124: 1 µg/mL
[6]
  Sensitization fold with 5 μg/ml MD-124: 30 fold
[6]; strain mcr-1 A
  MIC of Rif polymyxin B: 10 µg/mL
[6]; strain mcr-1 B
  MIC of Rif polymyxin B: 30 µg/mL
E. coli
  bacterial lysis by lysozyme in the presence of sensitizer: led to bacterial lysis
E. coli expressing mcr-1
  effect on bacterial load as compared with vehicle group: only had minor effects
